Assay results from patent publication US10723726B2, “Solid forms of (Z)-4-(5-((3-benzyl-4-oxo-2-thioxothiazolidin-5-ylidene)methyl)furan-2-yl)benzoic acid” (GB006, INC., priority 2015, dated 2020).
Counter-ions that a name gives are not always drawn.

Columns and labels:
in vivo [1] = conditions: male
Description: Test system: Healthy Beagle dog weighing 10-12 kg (age 10 months), males were used for the study. Crossover design was adopted for the experiments wherein 03 dogs were used in the study for oral and intravenous administration. The animals were housed stainless steel cage provided with a hopper to hold pellet feed and a separate water hopper. Temperature and humidity was maintained at 23±5° C. and 30-70%, respectively. The illumination was controlled to give a sequence of 12 h light and 12 h dark cycle. All the animals were adapted to the experimental conditions for at least 5 days prior to dosing. All animals were provided with Pedigree™ standard pellet feed, except for 10 to 12 h before treatment and 4 h after the drug administration. Water was provided ad libidum.
Formulation and drug administration: 251.02 mg of test item was transferred in to a clean mortar. Test item was ground uniformly using pestle. 1.235 ml of Tween 80 was added and the material was mixed. A small quantity of 0.5% (w/v) methylcellulose in water was added and the mixture was triturated. 0.5% methyl cellulose was added to make a final volume of 190 ml. Finally the above formulation was transferred to a pre-labeled beaker and sonicated for five minutes. Suspension was dosed under stirring conditions by placing on a magnetic stirrer.
The dose formulation of LA-1.choline was administered by oral gavage using a feeding gavage tube. The required volume of dose formulation (5 ml/kg body weight) was draw up into a graduated syringe. The dog was properly restrained with the help of another person so as to restrict movement. The feeding tube was inserted slowly in the mouth through the space between cheek and the teeth towards esophagus to the stomach. Proper placement of tube was confirmed by dipping the outside end of tube in a container with water and looking for air bubbles. Absence of air bubbles confirmed the location of tube in the stomach. The required dose volume of LA-1.choline suspension was slowly administered through the feeding tube. Air was pushed through at the end to ensure empting of the tube. The tube was slowly taken out and discarded.
Intravenous drug formulation: Accurately weighed 27.49 mg of test item was transferred in to the clean tube. A volume of 0.417 mL DMSO was added and mixed until the test dissolves completely. A volume 0.417 mL of Solutol:alcohol (1:1, v/v) was added and mixed, to this, 7.496 mL of normal saline was added and vortexed. Finally, the above formulation was used for dosing.
The required volume of dose formulation (0.2 ml/kg body weight) of LA-1.choline was drawn up into a graduated syringe. Air bubbles were removed from the syringe before dosing. The dog was restrained in the standing position. The upper portion of injection site of cephalic vein was compressed and the needle of the butterfly vein catheter sized 22G was slowly inserted in the vein. Once blood reached the end of the catheter tube, it was connected to the syringe. The dose formulation was immediately injected slowly. At the end of administration, approximately 0.5 mL of normal saline was injected via catheter to ensure the required dose volume was administrated. Last, the needle was removed.
Sample collection: Post-dosing ˜1.5 ml of blood sample from each dog for the following time points 0.25, 0.5, 1, 1.5, 2, 3, 5, 8, 10 and 24 h was collected from the jugular vein into K2EDTA containing pre-labeled vacutainer centrifuge tubes. Plasma was obtained by centrifuging blood samples at 2500 g for 10 min. under refrigeration (2-4° C.) within 0.5 h of sampling. The obtained plasma samples were transferred into pre-labeled microcentrifuge tubes (approximately ˜300 μl) and stored at or below −70±10° C. The sample labels include details such as study number, test item code and dose group and/or day of sampling, animal number, time point.
Extraction procedure: The plasma separated from the whole blood was used for bio-analysis.

in vivo [2] = conditions: C57BL/6, mouse
Description: A mouse melanoma tumor cell line, B16-F10, was used for developing a subcutaneous tumor model. 0.1×10^6 cells were injected subcutaneously in the right flank region of the animal. When the tumors reached ˜45 mm^3 the animals were randomized into various groups, each group with 10 animals, so that the average tumor volume of all the groups was similar. Animals were treated from the day of randomization (Day 1). Tumor dimensions (length and diameter) were measured for all animals three times per week, including the termination day of the study. In addition, throughout the study period, mice were monitored daily for clinical conditions. […] Portions of the blood samples were used for blood analysis and clinical chemistry. Lung, heart, liver, spleen, and kidneys were also collected and histopathological analysis was performed.

[3] = Beagle, dog, iv, 0.5 mg/kg, Plasma concentration
[4] = Beagle, dog, po, 5 mg/kg, Mean conc.
[5] = Beagle, dog, po, 5 mg/kg, Plasma concentration
[6] = beagle, dog, iv, 0.5 mg/kg, Mean conc.
[7] = beagle, dog, iv, 0.5 mg/kg, Plasma concentration
[8] = beagle, dog, po, 5 mg/kg, Plasma concentration

O=C(O)c1ccc(-c2ccc(/C=C3\SC(=S)N(Cc4ccccc4)C3=O)o2)cc1 [LA1 choline salt]
concentration at 0.25 h (in vivo [1]; [3]): 723 ng/mL | concentration at 0.5 h (in vivo [1]; [3]): 501 ng/mL | concentration at 1 h (in vivo [1]; [3]): 397 ng/mL | concentration at 2 h (in vivo [1]; [3]): 203 ng/mL | concentration at 3 h (in vivo [1]; [3]): 265 ng/mL | concentration at 5 h (in vivo [1]; [3]): 67.7 ng/mL | concentration at 8 h (in vivo [1]; [3]): 44.4 ng/mL | concentration at 10 h (in vivo [1]; [3]): 19.8 ng/mL | Plasma concentration (in vivo [1]; Beagle, dog, po, 5 mg/kg, 0.5 h): 2776 ng/mL | Plasma concentration (in vivo [1]; Beagle, dog, po, 5 mg/kg, 1 h): 2706 ng/mL | Plasma concentration (in vivo [1]; Beagle, dog, po, 5 mg/kg, 2 h): 2055 ng/mL | Plasma concentration (in vivo [1]; Beagle, dog, po, 5 mg/kg, 3 h): 2510 ng/mL | Plasma concentration (in vivo [1]; Beagle, dog, po, 5 mg/kg, 5 h): 429 ng/mL | concentration at 0.25 h (in vivo [1]; [4]): 1100 ng/mL | concentration at 0.5 h (in vivo [1]; [4]): 1880 ng/mL | concentration at 1 h (in vivo [1]; [4]): 1890 ng/mL | concentration at 2 h (in vivo [1]; [4]): 1520 ng/mL | concentration at 3 h (in vivo [1]; [4]): 1960 ng/mL | concentration at 5 h (in vivo [1]; [4]): 414 ng/mL | concentration at 8 h (in vivo [1]; [4]): 150 ng/mL | concentration at 10 h (in vivo [1]; [4]): 128 ng/mL | concentration at 24 h (in vivo [1]; [4]): 16.9 ng/mL | concentration at 0.5 h (in vivo [1]; [5]): 1870 ng/mL | concentration at 1 h (in vivo [1]; [5]): 1660 ng/mL | concentration at 2 h (in vivo [1]; [5]): 1480 ng/mL | concentration at 3 h (in vivo [1]; [5]): 1810 ng/mL | concentration at 5 h (in vivo [1]; [5]): 442 ng/mL | Dog Cl (in vivo [1]; beagle): 3.9 mL/min/kg | bioavailability (in vivo [1]; beagle, dog, Absolute oral bioavailability): 50.6% | clearance (in vivo [1]; beagle, dog, Dog Cl (ml/min/kg)): 3.92 mL/min/kg | bioavailability (in vivo [1]; beagle, dog, Dog F % (absolute oral bioavailability)): 43.4% | AUC0-t (in vivo [1]; beagle, dog, iv, 0.5 mg/kg): 1330 ng·h/mL | AUC(0-inf) (in vivo [1]; beagle, dog, iv, 0.5 mg/kg): 1350 ng·h/mL | Cmax (in vivo [1]; beagle, dog, iv, 0.5 mg/kg): 2040 ng/mL | Vd (in vivo [1]; beagle, dog, iv, 0.5 mg/kg): 0.00072 L | Plasma concentration (in vivo [1]; beagle, dog, iv, 0.5 mg/kg, 0.25 h): 843 ng/mL | Plasma concentration (in vivo [1]; beagle, dog, iv, 0.5 mg/kg, 0.5 h): 548 ng/mL | Plasma concentration (in vivo [1]; beagle, dog, iv, 0.5 mg/kg, 1 h): 405 ng/mL | clearance (in vivo [1]; beagle, dog, iv, 0.5 mg/kg, Cl): 0.0065 mL/min | half-life (in vivo [1]; beagle, dog, iv, 0.5 mg/kg, Half life): 2.15 h | concentration at 0.25 h (in vivo [1]; [6]): 851 ng/mL | concentration at 0.5 h (in vivo [1]; [6]): 641 ng/mL | concentration at 1 h (in vivo [1]; [6]): 508 ng/mL | concentration at 2 h (in vivo [1]; [6]): 297 ng/mL | concentration at 3 h (in vivo [1]; [6]): 421 ng/mL | concentration at 5 h (in vivo [1]; [6]): 109 ng/mL | concentration at 8 h (in vivo [1]; [6]): 44.1 ng/mL | concentration at 10 h (in vivo [1]; [6]): 27.6 ng/mL | concentration at 0.25 h (in vivo [1]; [7]): 987 ng/mL | concentration at 0.5 h (in vivo [1]; [7]): 874 ng/mL | concentration at 1 h (in vivo [1]; [7]): 721 ng/mL | concentration at 24 h (in vivo [1]; [7]): 15.8 ng/mL | AUC0-t (in vivo [1]; beagle, dog, po, 3 mg/kg): 2570 ng·h/mL | AUC(0-inf) (in vivo [1]; beagle, dog, po, 3 mg/kg): 2690 ng·h/mL | Cmax (in vivo [1]; beagle, dog, po, 3 mg/kg): 685 ng/mL | Tmax (in vivo [1]; beagle, dog, po, 3 mg/kg): 4 h | half-life (in vivo [1]; beagle, dog, po, 3 mg/kg, Half life): 2.11 h | Vdss (in vivo [1]; beagle, dog, po, 5 mg/kg): 0.83 L/kg | peak concentration (in vivo [1]; beagle, dog, po, 5 mg/kg): 2068 ng/mL | t1/2 (hr), oral half-life (in vivo [1]; beagle, dog, po, 5 mg/kg): 3.41 h | time of peak concentration post dose (in vivo [1]; beagle, dog, po, 5 mg/kg): 1.5 h | concentration at 0.5 h (in vivo [1]; [8]): 999 ng/mL | concentration at 1 h (in vivo [1]; [8]): 1310 ng/mL | concentration at 2 h (in vivo [1]; [8]): 1020 ng/mL | concentration at 3 h (in vivo [1]; [8]): 1560 ng/mL | concentration at 5 h (in vivo [1]; [8]): 370 ng/mL | concentration at 8 h (in vivo [1]; [8]): 107 ng/mL | concentration at 10 h (in vivo [1]; [8]): 158 ng/mL | half-life (in vivo [1]; beagle, dog, po, 5 mg/kg, t1/2 (hr), oral half-life): ~3.4 h

O=C(O)c1ccc(-c2ccc(/C=C3\SC(=S)N(Cc4ccccc4)C3=O)o2)cc1 [LA1, (Z)-4-(5-((3-benzyl-4-oxo-2-thioxothiazolidin-5-ylidene)methyl)furan-2-yl)benzoic acid]
concentration at 0.5 h (in vivo [2]; exposure in blood at end of study): 383 ± 450 ng/mL | concentration at 0.5 h (in vivo [2]; exposure in tumor at end of study): 24.7 ± 17.6 ng/mL
